Measurements as given in patent publication US20110045101A1, “FUNGICIDAL SUBSTITUTED AZOLES” (E.I. Du Pont De Nemours and Company, priority 2009, published 2011).
Marks after values point to notes of the source that are not given here.

Legend:
Assay type in all cases: in vivo
Conditions in all cases: 100 = 100% disease control, 0 = no control
[1] = tested on: Erysiphe graminis f. sp. tritici; assay: Test J: wheat powdery mildew on wheat seedlings, sprayed the day before inoculation, visual disease rating
Method in brief: (§1)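 Test rate was 200 ppm, sprayed to run-off and equal to 500 g/ha, or 40 ppm where marked. The compound was first taken up in acetone at 3% of final volume and suspended in acetone/purified water (50/50) containing 250 ppm Trem® 014.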

[2] = tested on: Puccinia recondita f. sp. tritici; assay: Test I: wheat leaf rust on wheat seedlings, sprayed the day before inoculation, visual disease rating
Method in brief: as §1

Botrytis cinerea = assay: Test C: tomato Botrytis on tomato seedlings, sprayed the day before inoculation, visual disease rating
Method in brief: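 Each compound is first taken up in acetone at 3% of the final volume and then brought to the desired ppm in a 50:50 acetone–water mix with 250 ppm surfactant (polyhydric alcohol esters). Tomato seedlings receive the suspension to run-off, normally at 200 ppm, occasionally 40 ppm.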

Septoria tritici = assay: Test G: wheat leaf blotch on wheat seedlings, sprayed the day before inoculation, visual disease rating
Method in brief: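 Disease was rated visually after Septoria tritici inoculation, 48 h saturated incubation at 24°C and 19 days in a 20°C growth chamber. Inoculation followed one day after run-off spraying of seedlings with compound at 200 ppm (≈500 g/ha) or, where marked, 40 ppm, formulated in acetone/water with surfactant.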

Alternaria solani = assay: Test D: tomato early blight, sprayed the day before inoculation, visual disease rating
Method in brief: as §1

Septoria nodorum = assay: Test F: wheat glume blotch on wheat seedlings, sprayed the day before inoculation, visual disease rating
Method in brief: as §1

| SMILES | Test J disease control rating ([1]; 200 ppm) | Test I disease control rating ([2]; 200 ppm) | Test C disease control rating (Botrytis cinerea; 200 ppm) | Test G disease control rating (Septoria tritici; 200 ppm) | Test D disease control rating (Alternaria solani; 200 ppm) | Test F disease control rating (Septoria nodorum; 200 ppm) | Test J disease control rating ([1]; 40 ppm (marked *)) | Test I disease control rating ([2]; 40 ppm (marked *)) | Test C disease control rating (Botrytis cinerea; 40 ppm (marked *)) | Test G disease control rating (Septoria tritici; 40 ppm (marked *)) | Test D disease control rating (Alternaria solani; 40 ppm (marked *)) | Test F disease control rating (Septoria nodorum; 40 ppm (marked *)) |
| --- | --- | --- | --- | --- | --- | --- | --- | --- | --- | --- | --- | --- |
| Fc1cc(-n2c(Cl)nc(Cl)c2-c2c(F)cccc2F)ccc1Cl [compound 225] | 100% | 99% | 96% | 98% | 100% | 0% |  |  |  |  |  |  |
| Cc1ccc(-n2c(Cl)nc(Cl)c2-c2c(F)ccc(F)c2F)cc1C [compound 226] | 95% | 0% | 76% | 88% | 67% | 0% |  |  |  |  |  |  |
| Cc1ccc(-n2c(Cl)nc(Cl)c2-c2c(F)cccc2Cl)cc1 [compound 227] | 99% | 99% | 98% | 94% | 96% | 0% |  |  |  |  |  |  |
| Fc1ccc(-n2c(Cl)nc(Cl)c2-c2c(F)cccc2Cl)cc1 [compound 228] | 99% | 94% | 96% | 98% | 99% | 0% |  |  |  |  |  |  |
| Fc1ccc(-c2c(Cl)nc(Cl)n2-c2ccc(Cl)c(F)c2)c(Cl)c1 [compound 229] | 91% | 89% | 98% | 98% | 99% | 0% |  |  |  |  |  |  |
| Fc1cc(-n2c(Cl)nc(Cl)c2-c2c(F)cccc2Cl)ccc1Cl [compound 230] | 99% | 94% | 99% | 99% | 97% | 0% |  |  |  |  |  |  |
| CSc1ccc(F)c(-c2c(Cl)nc(Br)n2-c2ccc(Cl)cc2)c1F [compound 231] | 98% | 96% | 87% | 99% | 61% | 100% |  |  |  |  |  |  |
| Fc1ccc(SCCl)c(F)c1-c1c(Cl)ncn1-c1ccc(Cl)cc1 [compound 232] | 0% | 9% | 0% | 95% | 0% | 0% |  |  |  |  |  |  |
| Fc1cc(F)c(-n2c(Cl)nc(Br)c2-c2ccc(Cl)cc2)c(F)c1 [compound 233] |  |  |  |  |  |  | 94* % | 41* % | 96* % | 95* % | 88* % | 0* % |
| Fc1ccc(F)c(-c2c(Cl)nc(Cl)n2-c2ccc(Cl)c(Cl)c2)c1F [compound 234] | 98% | 55% | 95% | 98% | 99% | 0% |  |  |  |  |  |  |
| CSc1ccc(F)c(-c2c(Cl)nc(C)n2-c2ccc(Cl)cc2)c1F [compound 235] | 99% | 97% | 99% | 99% | 99% | 92% |  |  |  |  |  |  |
| Cc1nc(Cl)c(-c2c(F)cccc2F)n1-c1cccc(Cl)c1 [compound 236] | 100% | 100% | 100% | 96% | 100% | 99% |  |  |  |  |  |  |
| Cc1nc(Cl)c(-c2c(F)ccc(F)c2Cl)n1-c1ccc(Cl)c(F)c1 [compound 237] | 100% | 100% | 100% | 98% | 100% | 100% |  |  |  |  |  |  |
| Cc1ccc(-n2c(C)nc(Cl)c2-c2c(F)ccc(F)c2F)cc1C [compound 238] | 100% | 96% | 99% | 93% | 99% | 0% |  |  |  |  |  |  |
| COc1cc(F)c(-c2c(Cl)nc(Cl)n2-c2ccc(Cl)cc2)c(F)c1 [compound 239] | 100% | 99% | 100% | 96% | 100% | 100% |  |  |  |  |  |  |
| COc1cc(F)c(-c2c(Cl)nc(Cl)n2-c2ccc(Cl)c(F)c2)c(F)c1 [compound 240] | 100% | 100% | 100% | 97% | 100% | 100% |  |  |  |  |  |  |
| COc1cc(F)c(-c2c(Cl)nc(I)n2-c2ccc(Cl)c(F)c2)c(F)c1 [compound 241] | 93% | 96% | 100% | 96% | 100% | 100% |  |  |  |  |  |  |
| COc1cc(F)c(-n2c(Br)nc(Br)c2-c2ccc(Cl)cc2)c(F)c1 [compound 242] |  |  |  |  |  |  | 92* % | 89* % | 99* % | 95* % | 95* % | 51* % |
| Cc1nc(Cl)c(-c2ccc(F)cc2Cl)n1-c1ccc(Cl)c(F)c1 [compound 243] | 98% | 100% | 99% | 99% | 100% | 98% |  |  |  |  |  |  |
| Cc1nc(Cl)c(-c2c(F)cccc2Cl)n1-c1ccc(Cl)c(F)c1 [compound 244] | 100% | 99% | 100% | 96% | 100% | 99% |  |  |  |  |  |  |
| COc1cc(F)c(-c2c(Cl)nc(I)n2-c2ccc(Cl)cc2)c(F)c1 [compound 245] | 99% | 95% | 100% | 97% | 99% | 100% |  |  |  |  |  |  |
| Cc1nc(Cl)c(-c2c(F)cccc2F)n1-c1ccc(Cl)c(F)c1 [compound 247] | 100% | 100% | 100% | 97% | 100% | 100% |  |  |  |  |  |  |
| COc1cc(F)c(-n2c(C)nc(C)c2-c2ccc(Cl)cc2)c(F)c1 [compound 249] |  |  |  |  |  |  | 81* % | 74* % | 100* % | 93* % | 99* % | 73* % |
| COc1cc(F)c(-c2c(C)ncn2-c2ccccn2)c(F)c1 [compound 250] | 94% | 99% | 99% | 83% | 100% | 0% |  |  |  |  |  |  |
| Cc1ncn(-c2ccc(Cl)c(F)c2)c1-c1ccccn1 [compound 251] | 0% | 9% | 99% | 81% | 0% | 0% |  |  |  |  |  |  |
| Cc1ncn(-c2ccc(Cl)c(F)c2)c1-c1cccnc1 [compound 252] | 0% | 0% | 15% | 13% | 0% | 0% |  |  |  |  |  |  |
| Cc1ncn(-c2ccc(Cl)c(F)c2)c1-c1ccncc1 [compound 253] | 0% | 74% | 94% | 91% | 0% | 0% |  |  |  |  |  |  |
| COc1cc(F)c(-c2c(C)ncn2-c2ccc(Cl)nc2)c(F)c1 [compound 254] | 98% | 99% | 100% | 95% | 100% | 0% |  |  |  |  |  |  |
| Cc1ncn(-c2ccc(Cl)c(F)c2)c1-c1c(Cl)cncc1Cl [compound 255] | 91% | 86% | 99% | 95% | 0% | 0% |  |  |  |  |  |  |
